One assay deals with T1, GST-TYK2(888-1187) (Homo sapiens, UniProt P29597).
T1 construct: GST-TYK2(888-1187); made in house
T1 sequence (P29597 888-1187): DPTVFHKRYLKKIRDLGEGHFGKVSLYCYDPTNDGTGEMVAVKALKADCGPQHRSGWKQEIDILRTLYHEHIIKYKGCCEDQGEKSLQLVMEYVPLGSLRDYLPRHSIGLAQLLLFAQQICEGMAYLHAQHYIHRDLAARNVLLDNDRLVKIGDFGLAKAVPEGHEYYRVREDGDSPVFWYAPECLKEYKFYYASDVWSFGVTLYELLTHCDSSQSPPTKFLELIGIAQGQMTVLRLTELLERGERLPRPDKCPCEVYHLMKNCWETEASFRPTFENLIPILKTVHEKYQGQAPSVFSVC
The assay can be described thus: EPK JAK-family kinases profiling assay (Caliper mobility shift), TYK2. Type of assay: biochemical. Particulars: ATP 30 μM, 40 nM kinase. Put shortly: (§1)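 Turnover was read as substrate/product ratio after mobility-shift capillary-like separation of each reaction, run for 60 min at 30 °C with GST-tagged kinase domain, labelled peptide and ATP, and terminated with EDTA stop buffer.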

Another assay deals with T2, GST-JAK3(811-1124) (Homo sapiens, UniProt P52333).
T2 construct: GST-JAK3(811-1124); made in house
T2 sequence (P52333 811-1124): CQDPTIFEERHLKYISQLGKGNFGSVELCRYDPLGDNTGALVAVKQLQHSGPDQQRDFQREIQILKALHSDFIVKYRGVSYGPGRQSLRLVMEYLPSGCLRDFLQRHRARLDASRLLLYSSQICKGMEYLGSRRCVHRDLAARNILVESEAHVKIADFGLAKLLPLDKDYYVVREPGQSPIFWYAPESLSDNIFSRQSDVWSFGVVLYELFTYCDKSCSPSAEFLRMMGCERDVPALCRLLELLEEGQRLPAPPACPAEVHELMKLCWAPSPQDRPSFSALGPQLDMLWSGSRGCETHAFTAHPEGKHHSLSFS
Nature of the assay: EPK JAK-family kinases profiling assay (Caliper mobility shift), JAK3. Type of assay: biochemical. The conditions noted are these: ATP 80 μM, 6 nM kinase. The method, boiled down:
as §1

The test system of assay [1] is JAK/STAT pathway (JAK1/JAK2-dependent nuclear translocation of STAT1-GFP). Nature of the assay: Inhibition of the JAK/STAT pathway: IFN-γ stimulated nuclear translocation of STAT1-GFP in HT1080 fibrosarcoma cells. It is filed as cell-based. The conditions noted are these: Homo sapiens, HT-1080; HT1080 STAT1-GFP cells, 100 ng/ml IFN-γ 2 hours, compound added 30 min before; read-out: STAT1translo IC50. Put shortly: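 HT1080 cells stably expressing STAT1-GFP, compounds added 30 min before IFN-γ stimulation at final 10 μM down to 0.003 μM (0.1% DMSO). Nuclear-cytoplasmic GFP intensity differential quantified by automated imaging with Hoechst nuclear mask, ≥1000 cells per well, averaged per well.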

The next assay concerns the target T3, GST-JAK2(808-1132) (Homo sapiens, UniProt O60674).
T3 construct: GST-JAK2(808-1132); purchased Invitrogen (Carlsbad, USA) #4288
Nature of the assay: EPK JAK-family kinases profiling assay (Caliper mobility shift), JAK2. It is filed as biochemical. The conditions noted are these: ATP 20 μM, 1.8 nM kinase. The method, boiled down:
as §1

The target in a further assay is T4, GST-JAK1(866-1154) (Homo sapiens, UniProt P23458).
T4 construct: GST-JAK1(866-1154); made in house
T4 sequence (P23458 866-1154): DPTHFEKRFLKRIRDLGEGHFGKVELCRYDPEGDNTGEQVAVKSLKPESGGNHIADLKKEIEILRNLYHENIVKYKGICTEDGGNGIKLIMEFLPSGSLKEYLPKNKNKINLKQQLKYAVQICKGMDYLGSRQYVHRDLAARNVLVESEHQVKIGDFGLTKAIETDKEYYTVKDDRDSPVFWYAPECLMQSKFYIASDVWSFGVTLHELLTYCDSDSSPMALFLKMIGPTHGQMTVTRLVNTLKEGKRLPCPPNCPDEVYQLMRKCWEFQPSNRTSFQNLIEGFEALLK
The assay can be described thus: EPK JAK-family kinases profiling assay (Caliper mobility shift), JAK1. It is filed as biochemical. The conditions noted are these: ATP 40 μM, 50 nM kinase. The method, boiled down:
as §1

Our source for the IC50 values is patent US8193189B2, “Quinoxaline derivatives as tyrosine kinase activity inhibitors” (Novartis AG, priority 2007, dated 2012).

T3 sequence (O60674 808-1132): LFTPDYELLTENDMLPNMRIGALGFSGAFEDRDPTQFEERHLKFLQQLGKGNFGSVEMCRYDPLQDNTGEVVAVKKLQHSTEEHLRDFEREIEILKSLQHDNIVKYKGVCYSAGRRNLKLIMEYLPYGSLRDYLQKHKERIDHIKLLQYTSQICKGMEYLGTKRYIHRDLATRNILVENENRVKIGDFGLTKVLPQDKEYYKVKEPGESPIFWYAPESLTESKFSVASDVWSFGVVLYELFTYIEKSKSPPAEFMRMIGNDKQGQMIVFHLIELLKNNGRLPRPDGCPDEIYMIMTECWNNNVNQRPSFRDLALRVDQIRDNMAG

The term IC50 denotes the midpoint of a concentration-inhibition curve. Take `Cc1cc(-c2cccc3ncc(-c4cnn(CCCN5CCOCC5)c4)nc23)ccc1C(=O)N1CCOCC1` [Example 114, (2-Methyl-4-{3-[1-(3-morpholin-4-yl-propyl)-1H-pyrazol-4-yl]-quinoxalin-5-yl}-phenyl)-morpholin-4-yl-methanone]: the IC50 at GST-TYK2(888-1187) worked out at 345 nM; at GST-JAK3(811-1124), 1650 nM; in assay [1], 6380 nM; at GST-JAK2(808-1132) it was 11.5 nM; at GST-JAK1(866-1154), 250 nM.
For `COCCn1cc(-c2cnc3cccc(-c4cc(F)c(CN5CCOCC5)c(F)c4)c3n2)cn1` [Example 115, 8-(3,5-Difluoro-4-morpholin-4-ylmethyl-phenyl)-2-[1-(2-methoxy-ethyl)-1H-pyrazol-4-yl]-quinoxaline] the same measures were 480 nM, 1600 nM, 1440 nM, 9.3 nM and 72.5 nM.
For the compound `Fc1cc(-c2cccc3ncc(-c4cnn(C5CCOCC5)c4)nc23)cc(F)c1CN1CCOCC1` [Example 117, 8-(3,5-Difluoro-4-morpholin-4-ylmethyl-phenyl)-2-[1-(tetrahydro-pyran-4-yl)-1H-pyrazol-4-yl]-quinoxaline], the IC50 at GST-TYK2(888-1187) was 125 nM; at GST-JAK3(811-1124), 1040 nM; in assay [1], 60 nM; at GST-JAK2(808-1132) it was under 3 nM; on GST-JAK1(866-1154), 76.5 nM.
For `O=C1CN(Cc2c(F)cc(-c3cccc4ncc(-c5cnn(C6CCOCC6)c5)nc34)cc2F)CCN1` [Example 118, 4-(2,6-Difluoro-4-{3-[1-(tetrahydro-pyran-4-yl)-1H-pyrazol-4-yl]-quinoxalin-5-yl}-benzyl)-piperazin-2-one], in that order: 955 nM, over 10000 nM, 360 nM, 25 nM and 470 nM.
For `O=C(c1c(F)cc(-c2cccc3ncc(-c4cnn(C5CCOCC5)c4)nc23)cc1F)N1CCOCC1` [Example 119, (2,6-Difluoro-4-{3-[1-(tetrahydro-pyran-4-yl)-1H-pyrazol-4-yl]-quinoxalin-5-yl}-phenyl)-morpholin-4-yl-methanone], in that order: 280 nM, 6400 nM, 340 nM, 9.85 nM and 250 nM.
`COCCN1CCC(n2cc(-c3cnc4cccc(-c5cc(F)c(CN6CCOCC6)c(F)c5)c4n3)cn2)CC1` [Example 123, 8-(3,5-Difluoro-4-morpholin-4-ylmethyl-phenyl)-2-{1-[1-(2-methoxy-ethyl)-piperidin-4-yl]-1H-pyrazol-4-yl}-quinoxaline]: the IC50 worked out at 170 nM at GST-TYK2(888-1187); 1950 nM on GST-JAK3(811-1124); 180 nM in assay [1]; 5 nM on GST-JAK2(808-1132); 135 nM on GST-JAK1(866-1154).
